Read-outs that look alike come from different tables or passages of the source. Marks after values point to notes of the source that are not given here.
Tests used:
human α1A‐adrenoceptor [1] = target: T1, human α1A‐adrenoceptor (Homo sapiens, UniProt P35348); test: Intracellular free calcium mobilization, CHO‐α1A cells; type: cell-based
T1 construct: expressed in transfected cells; host or cells: CHO-K1
T1 sequence (P35348 1-466): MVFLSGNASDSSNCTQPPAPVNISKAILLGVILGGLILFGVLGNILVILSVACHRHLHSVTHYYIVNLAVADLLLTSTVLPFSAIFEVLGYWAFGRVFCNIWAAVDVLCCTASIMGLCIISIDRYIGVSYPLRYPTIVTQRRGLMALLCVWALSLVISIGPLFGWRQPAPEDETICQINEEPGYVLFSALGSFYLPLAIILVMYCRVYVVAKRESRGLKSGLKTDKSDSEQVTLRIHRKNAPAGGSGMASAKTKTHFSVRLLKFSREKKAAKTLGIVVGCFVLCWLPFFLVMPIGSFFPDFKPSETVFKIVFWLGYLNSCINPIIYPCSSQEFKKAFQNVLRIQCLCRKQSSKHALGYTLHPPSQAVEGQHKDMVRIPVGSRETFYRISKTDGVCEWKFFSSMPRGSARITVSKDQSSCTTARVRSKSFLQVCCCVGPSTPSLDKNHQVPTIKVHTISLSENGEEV

human α1B‐adrenoceptor [2] = target: T2, human α1B‐adrenoceptor (Homo sapiens, UniProt P35368); test: Intracellular free calcium mobilization, CHO‐α1B cells; type: cell-based
T2 construct: expressed in transfected cells; host or cells: CHO-K1
T2 sequence (P35368 1-520): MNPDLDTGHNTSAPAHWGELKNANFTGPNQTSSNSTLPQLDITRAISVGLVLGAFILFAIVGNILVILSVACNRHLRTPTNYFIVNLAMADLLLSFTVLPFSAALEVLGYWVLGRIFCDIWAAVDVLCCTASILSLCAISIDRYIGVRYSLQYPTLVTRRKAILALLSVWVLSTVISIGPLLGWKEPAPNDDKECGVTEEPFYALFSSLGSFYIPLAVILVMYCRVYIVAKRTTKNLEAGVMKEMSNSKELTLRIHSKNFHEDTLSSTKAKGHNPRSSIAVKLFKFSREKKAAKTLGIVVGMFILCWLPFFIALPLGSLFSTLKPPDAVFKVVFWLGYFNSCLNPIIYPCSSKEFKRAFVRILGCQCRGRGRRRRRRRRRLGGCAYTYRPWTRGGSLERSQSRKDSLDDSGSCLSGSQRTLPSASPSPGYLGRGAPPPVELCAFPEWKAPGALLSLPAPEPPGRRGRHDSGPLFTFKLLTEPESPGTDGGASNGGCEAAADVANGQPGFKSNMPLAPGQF

[3] = target: T3, human α1D‐adrenoceptor (full length) (Homo sapiens, UniProt P25100); test: Intracellular free calcium mobilization, CHO‐α1D cells; type: cell-based; conditions: for Intracellular calcium release % ionomycin: maximal response as % of 10 µM ionomycin
T3 construct: human α1D‐adrenoceptor (full length) were used; expressed in transfected cells; host or cells: CHO-K1
T3 sequence (P25100 1-572): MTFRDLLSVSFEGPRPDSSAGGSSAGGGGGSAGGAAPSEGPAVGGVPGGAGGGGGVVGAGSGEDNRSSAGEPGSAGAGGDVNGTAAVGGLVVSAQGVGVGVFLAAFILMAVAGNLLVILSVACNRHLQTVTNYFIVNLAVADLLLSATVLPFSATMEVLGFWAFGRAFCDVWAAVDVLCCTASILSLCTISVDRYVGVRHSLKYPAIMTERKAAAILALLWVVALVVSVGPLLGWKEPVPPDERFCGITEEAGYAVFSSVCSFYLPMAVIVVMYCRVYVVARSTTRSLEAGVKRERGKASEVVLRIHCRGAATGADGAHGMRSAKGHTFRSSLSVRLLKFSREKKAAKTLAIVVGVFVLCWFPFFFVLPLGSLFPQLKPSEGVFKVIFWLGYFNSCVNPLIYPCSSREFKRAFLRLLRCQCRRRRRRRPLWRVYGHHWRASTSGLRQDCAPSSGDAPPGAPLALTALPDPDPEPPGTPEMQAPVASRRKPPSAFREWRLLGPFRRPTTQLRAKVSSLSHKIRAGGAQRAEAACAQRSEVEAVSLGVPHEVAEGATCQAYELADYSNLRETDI

[4] = tested on: parental CHO cell line without any transfected receptors; test: Intracellular calcium mobilization, parent CHO cells without transfected receptors; type: cell-based, Chinese hamster; conditions: Cricetulus griseus, read-out: Intracellular calcium release % ionomycin
human α1A‐adrenoceptor [5] = target: T1, human α1A‐adrenoceptor; test: ERK1/2‐phosphorylation (Surefire Alphascreen), CHO‐α1A cells; type: cell-based
human α1B‐adrenoceptor [6] = target: T2, human α1B‐adrenoceptor; test: ERK1/2‐phosphorylation (Surefire Alphascreen), CHO‐α1B cells; type: cell-based
[7] = target: T3, human α1D‐adrenoceptor (full length); test: ERK1/2‐phosphorylation (Surefire Alphascreen), CHO‐α1D cells; type: cell-based
[8] = tested on: parental CHO cell line without any transfected receptors; test: ERK1/2‐phosphorylation, parent CHO cells without transfected receptors; type: cell-based, Chinese hamster; conditions: for EC50: read-out: ERK1/2-phosphorylation Log EC50 (converted); for Emax: read-out: ERK1/2-phosphorylation % PDBu; for ERK1/2‐phosphorylation response in parent CHO cells: untransfected cells
human α1A‐adrenoceptor [9] = target: T1, human α1A‐adrenoceptor; test: ^3H‐cAMP accumulation, CHO‐α1A cells; type: cell-based; conditions: CHO‐α1A cells; % of 10 µM forskolin response
human α1B‐adrenoceptor [10] = target: T2, human α1B‐adrenoceptor; test: ^3H‐cAMP accumulation, CHO‐α1B cells; type: cell-based; conditions: CHO‐α1B cells; % forskolin maximum response
[11] = tested on: parental CHO cell line without any transfected receptors; test: Forskolin‐stimulated cAMP accumulation, parent CHO cells without transfected receptors; type: cell-based, Chinese hamster; conditions: for cAMP accumulation (in presence of forskolin) % forskolin-stim cAMP at 100μM: response at 100μM only, EC50 not obtainable, % of forskolin-stimulated cAMP
[12] = target: T3, human α1D‐adrenoceptor (full length); test: ^3H‐cAMP accumulation in the presence of 10 μM forskolin, CHO‐α1D cells; type: cell-based; conditions: for Effect on cAMP accumulation in the presence of forskolin, CHO‐α1D cells: not α1‐mediated
human α1A‐adrenoceptor [13] = target: T1, human α1A‐adrenoceptor; test: ^3H‐prazosin whole‐cell radioligand binding, CHO‐α1A cells
human α1B‐adrenoceptor [14] = target: T2, human α1B‐adrenoceptor; test: ^3H‐prazosin whole‐cell radioligand binding, CHO‐α1B cells
[15] = target: T3, human α1D‐adrenoceptor (full length); test: ^3H‐prazosin whole‐cell radioligand binding, CHO‐α1D cells
[16] = CHO cells without transfected receptors, response at maximum concentration used (c2), as % of ionomycin (10μM) response, mean ± s.e.m.
[17] = Cricetulus griseus, CHO cells without transfected receptors, maximal response as % of PDBu (10μM) response, mean ± s.e.m.
[18] = CHO‐α1A cells, maximal response as % of 10 µM ionomycin
[19] = CHO‐α1A cells, % of 10 µM PDBu, ^a bi‐phasic: initial stimulatory part
[20] = CHO‐α1D cells, maximal response as % of PDBu
[21] = 3H‐prazosin binding Log KD, CHO‐α1D cells, whole‐cell binding (from Table 1), log values given negative
[22] = CHO‐α1D cells, given as log KD (negative), mean ± SEM, 'early plateau' = specific binding not fully inhibited
[23] = CHO‐α1D cells, log values given negative
[24] = CHO cells without transfected receptors, maximal response as % of PDBu (10μM) response, mean ± s.e.m.
[25] = CHO cells without transfected receptors

| Structure (SMILES) | Intracellular calcium release % ionomycin (human α1A‐adrenoceptor [1]) [%] | Intracellular calcium release % Ionomycin at 100 µM [3] [%] | Emax [4, 16] [%] | ERK1/2‐phosphorylation % PDBu (human α1A‐adrenoceptor [5]) [%] | ERK1/2‐phosphorylation % PDBu (human α1B‐adrenoceptor [6]) [%] | ERK1/2‐phosphorylation % PDBu at 100 µM [7] | Emax [8, 17] [%] | ERK1/2‐phosphorylation response in parent CHO cells [8] | cAMP accumulation % forskolin (human α1A‐adrenoceptor [9]) [%] | cAMP accumulation % forskolin (human α1B‐adrenoceptor [10]) | Intracellular calcium release % ionomycin (human α1A‐adrenoceptor [1]; [18]) [%] | Intracellular calcium release % ionomycin ([3]; CHO‐α1D cells) | ERK1/2‐phosphorylation % PDBu (human α1A‐adrenoceptor [5]; [19]) [%] | ERK1/2‐phosphorylation % PDBu [7, 20] | Affinity selectivity ratio α1A vs α1B (human α1A‐adrenoceptor [13]) [fold] | Kd (human α1A‐adrenoceptor [13]) [µM] | Affinity selectivity ratio α1B vs α1D [15] [fold] | Kd [15, 21] [µM] | Kd [15, 22] [µM] | ERK1/2-phosphorylation Log EC50 [8] | also measured |
| --- | --- | --- | --- | --- | --- | --- | --- | --- | --- | --- | --- | --- | --- | --- | --- | --- | --- | --- | --- | --- | --- |
| CC(CCc1ccccc1)NCC(O)c1ccc(O)c(C(N)=O)c1 (centres unmarked) [Labetolol] | 36.9 ± 3.7 | 8.1 ± 1.6 | 10.3 ± 3.1 | 71.3 ± 5.2 | 22.9 ± 6.3 | 36.5 ± 5.2 ^a % | 25.9 ± 3.4 | stimulated ERK1/2‐phosphorylation responses | 4.5 ± 0.6 | No response | – | – | – | – | – | – | – | – | – | – | Intracellular calcium release % Ionomycin at 100 µM (human α1B‐adrenoceptor [2]): 2.5 ± 1.2%; EC50 ([8]; Cricetulus griseus, CHO): 2.4 µM; cAMP accumulation (in presence of forskolin) Log EC50 [11]: No response |
| Cc1cc(C(C)(C)C)c(O)c(C)c1CC1=NCCN1 [Oxymethazoline] | – | – | 3.1 ± 0.9 | – | – | – | 46.7 ± 6 | stimulated ERK1/2‐phosphorylation responses | 43.9 ± 5.2 | – | 54.5 ± 2.5 | 7.6 ± 1.0% | 92.8 ± 2.7 | 48.6 ± 5.4% | – | – | – | – | – | – | EC50 ([8]; Cricetulus griseus, CHO cells without transfected receptors, mean ± s.e.m.): 0.011 µM; % inhibition of forskolin‐stimulated cAMP ([12]; CHO‐α1D cells, decrease in forskolin‐stimulated cAMP accumulation (footnote b)): *28.7 ± 2.9%; Effect on cAMP accumulation in the presence of forskolin, CHO‐α1D cells ([12]; listed as Oxymetazoline): decrease in cAMP accumulation; Effect on cAMP accumulation in the presence of forskolin, CHO‐α1D cells ([12]; listed as oxymetazoline): inhibitory cAMP response; % inhibition of forskolin-stimulated cAMP ([11]; CHO cells without transfected receptors, footnote *: % inhibition): 18.1 ± 2.2%; IC50 ([11]; Cricetulus griseus, CHO cells without transfected receptors, footnote *: log IC50, read-out: log IC50, decrease in forskolin-stimulated cAMP accumulation (converted)): 0.0195 µM; Effect on cAMP accumulation in the presence of forskolin, parent cells ([11]; untransfected cells): decrease in cAMP accumulation |
| OCc1cc(C(O)CNCCCCCCOCCCCc2ccccc2)ccc1O (centres unmarked) [Salmeterol] | – | – | 3.2 ± 1.4 | – | – | – | – | – | – | – | – | No response | – | No response | 9.5 | 0.776 | 4.4 | 1.7 | 1.7 | No response | Kd (human α1B‐adrenoceptor [14]; CHO‐α1B cells, given as log KD (negative), mean ± SEM): 7.41 µM; Kd (human α1B‐adrenoceptor [14]; Log KD, ^3H‐prazosin binding, CHO‐α1B cells, whole‐cell binding (from Table 1), given as log KD (negative numbers)): 7.41 µM; Intracellular calcium release % ionomycin at 10 µM (human α1A‐adrenoceptor [1]): 28.2 ± 2.7%; Intracellular calcium release % ionomycin at 10 µM (human α1B‐adrenoceptor [2]; CHO‐α1B cells, response at 10 µM ligand (no EC50 given), % of ionomycin response): 15.2 ± 4.0%; Intracellular calcium release Log EC50 [3, 23]: No response; ERK1/2‐phosphorylation Log EC50 [7, 23]: No response; ERK1/2-phosphorylation % PDBu [8, 24]: No response |
| Cc1cccc(C)c1N=C1NCCCS1 [Xylazine] | 45.1 ± 2.2 | 3.8 ± 0.8 | – | 78.6 ± 5.8 | 26.4 ± 5.8 | – | – | – | – | – | – | – | – | – | 18.2 | 33.1 | 21.9 | – | – | No response | Kd (human α1B‐adrenoceptor [14]): 603 µM; Affinity selectivity ratio α1A vs α1D [15]: 1.2 fold; Kd [15]: 27.5 µM; EC50 (human α1A‐adrenoceptor [1]): 1.2 µM; Log efficacy ratio KD /EC50 (human α1A‐adrenoceptor [1]): 1.44; EC50 (human α1B‐adrenoceptor [2]): 4.68 µM; Intracellular calcium release % ionomycin (human α1B‐adrenoceptor [2]): 30.4 ± 3.9%; Log efficacy ratio KD /EC50 (human α1B‐adrenoceptor [2]): 2.11; Emax ([4]; CHO): 2.3 ± 0.3%; EC50 (human α1A‐adrenoceptor [5]): 2.04 µM; EC50 (human α1B‐adrenoceptor [6]): 6.76 µM; ERK1/2‐phosphorylation % PDBu [7]: No response; ERK1/2‐phosphorylation Log EC50 [7]: No response; ERK1/2-phosphorylation % PDBu [8]: No response |
| O=C1CC2(CCCC2)CC(=O)N1CCCCN1CCN(c2ncccn2)CC1 [Buspirone] | – | – | 3.1 ± 2.3 | – | – | – | – | – | 3.3 ± 0.06 | – | 46.7 ± 3.0 | 9.0 ± 1.5% | 47.3 ± 10.6 | 11.3 ± 2.5% | – | – | – | – | – | – | Intracellular calcium release % ionomycin (human α1B‐adrenoceptor [2]; CHO‐α1B cells, maximal response as % of 10 µM ionomycin response): 47.8 ± 3.2%; ERK1/2‐phosphorylation % PDBu (human α1B‐adrenoceptor [6]; CHO‐α1B cells, maximal response as % PDBu response, for bi‐phasic responses the initial stimulatory part): 47.2 ± 8.6%; ERK1/2-phosphorylation % PDBu [8, 24]: No response; cAMP accumulation (in presence of forskolin) % forskolin-stim cAMP at 100μM [11, 25]: 113.6 ± 5.2% |
| Cc1cccc(Cc2c[nH]cn2)c1C [Detomidine] | – | – | 4.3 ± 1.7 | 84.2 ± 3.8 | 31.5 ± 5.4 | 12.3 ± 2.4% | – | – | 17.3 ± 1.9 | 2.8 ± 0.6% | – | – | – | – | – | – | – | 0.977 | 0.977 | – | Emax at 100 µM ([8]; Cricetulus griseus, CHO, read-out: ERK1/2-phosphorylation % PDBu at 100μM): 6.1 ± 4%; cAMP accumulation (in presence of forskolin) % forskolin-stim cAMP at 100μM [11, 25]: 83.2 ± 4.9% |
